Data on one compound can be found in patent publication US20210253651A1, “METHOD FOR PRODUCING ORGANIC COMPOUND-ENCAPSULATING FERRITIN” (Ajinomoto Co., Inc., priority 2018, published 2021).

Counter-ions that a name gives are not always drawn.

The subject of series [1] is FTH-BC-TBP ferritin. In words: one-step incorporation of DOX into mutant ferritin FTH-BC-TBP. The following applies: pH 8, 50° C., 60 minutes, DOX 0.3 mg/L. The series is classed as physicochemical, human. As to the method: Total synthesis was carried out for a DNA encoding a human-derived ferritin H chain (FTH-BC-TBP) monomer in which a titanium recognizing peptide (minTBP1: RKLPDA (SEQ ID NO: 7)) was inserted for fusion at a flexible linker region between second and third α-helices counted from an N-terminus of a ferritin monomer comprising six α-helices. PCR was carried out using the synthesized DNA as a template as well as the following primers: 5′-[…]-3′ (SEQ ID NO: 8) and 5′-[…]-3′ (SEQ ID NO: 9). PCR was carried out using pET20 (Merck KGaA) as a template as well as the following primers: 5′-[…]-3′ (SEQ ID NO: 10) and 5′-[…]-3′ (SEQ ID NO: 11). […]
DOX was mixed with 1 mL of 50 mM Tris-HCl buffer (pH 8) that contains each mutate ferritin at a final concentration of 1 mg/mL, to achieve a final concentration of 0.3 mg/L, and then the resulting solutions were left to stand at 50° C. for 60 minutes. […] The concentration of contained protein was determined using the protein assay CBB solution (Nacalai Tesque, Inc.) as well as bovine albumin as a standard. The DOX concentration was determined based on analysis of the absorbance at 480 nm.

For series [2], the target named is T1, FTH-U2AF ferritin (Homo sapiens, UniProt P02794).
T1 construct: pET20-FTH carrying a DNA encoding a human-derived ferritin H chain monomer as a template; made in house; host or cells: Escherichia coli BL21 (DE3), plasmid pET20-FTH-U2AF
Kind of series: one-step incorporation of DOX into FTH-U2AF ferritin. The series is classed as physicochemical. The following applies: pH 9, 50° C., 60 minutes, DOX 0.3 mg/L. As to the method: PCR was carried out using pET20-FTH carrying a DNA encoding a human-derived ferritin H chain monomer as a template as well as the following primers: 5′-[…]-3′ (SEQ ID NO: 18) and 5′-[…]-3′ (SEQ ID NO: 13), in order to obtain a DNA encoding the human-derived ferritin H chain (FTH-U2AF) in which an RNA recognition peptide (U2AF: TRQARR (SEQ ID NO: 17) R Tan and AD Frankel, Proc Natl Acad Sci USA 92, 5282-5286. (1995) which in incorporated herein by reference in its entirety)) is inserted and fused at the C-terminus of the ferritin monomer. The resulting PCR products were purified using Wizard DNA Clean-Up System (Promega Corporation), and then treated with restriction enzymes, DpnI and NdeI (Takara Bio Inc.) for self-ligation in order to construct an expression plasmid (pET20-FTH-U2AF) carrying a gene encoding FTH-U2AF monomer. […]
DOX was mixed with 1 mL of 50 mM Tris-HCl buffer (pH 9) that contains each mutate ferritin at a final concentration of 1 mg/mL, to achieve a final concentration of 0.3 mg/L, and then the resulting solutions were left to stand at 50° C. for 60 minutes. […] The concentration of contained protein was determined using the protein assay CBB solution (Nacalai Tesque, Inc.) as well as bovine albumin as a standard. The DOX concentration was determined based on analysis of the absorbance at 480 nm.

Series [3] has as its target T2, FTH ferritin (Homo sapiens, UniProt P02794).
T2 construct: made in house; host or cells: Escherichia coli BL21 (DE3), plasmid pET20-FTH
In words: disassembly-reassembly process incorporation of DOX into FTH ferritin. The series is classed as physicochemical. As to conditions: standing 15 minutes, DOX 0.2 mg/L. As to the method: Then, 10 μL of 1M Tris-HCl buffer (pH 9.0) was added for neutralization, and the resulting solution was left to stand for 5 to 120 minutes at room temperature. After the standing, 0.5 mL of water was added to the resulting solution. After the resulting solution was centrifuged (at 15,000 rpm for one minute), the supernatant was injected into the desalting column PD-10 (Sephadex G-25 filled product, GE Healthcare Inc.) equilibrated with 10 mM Tris-HCl buffer (pH 8) to separate the protein from a reagent that was not encapsulated. Whole amount (3.5 mL) of the resulting solution was concentrated to 0.1 mL by centrifugal ultrafiltration using Vivaspin 20-100K (GE Healthcare Inc.), and then the absorbances at 280 nm and 480 nm were measured using spectrophotometer (DU-800, Beckman Coulter Inc.).

T1 sequence (P02794 with tags, fused parts or gaps): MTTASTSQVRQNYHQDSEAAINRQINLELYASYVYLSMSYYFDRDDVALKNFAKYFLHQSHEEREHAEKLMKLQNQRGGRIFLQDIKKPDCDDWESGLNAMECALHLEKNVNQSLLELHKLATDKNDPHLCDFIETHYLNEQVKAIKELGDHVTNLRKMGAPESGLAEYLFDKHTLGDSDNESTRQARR
T2 sequence (P02794 whole entry): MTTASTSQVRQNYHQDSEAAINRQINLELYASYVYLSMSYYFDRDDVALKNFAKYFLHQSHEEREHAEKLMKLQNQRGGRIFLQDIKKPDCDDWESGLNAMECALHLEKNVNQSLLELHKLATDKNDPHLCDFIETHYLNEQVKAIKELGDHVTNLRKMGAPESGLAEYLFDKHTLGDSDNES

As for `COc1cccc2c1C(=O)c1c(O)c3c(c(O)c1C2=O)C[C@@](O)(C(=O)CO)C[C@@H]3OC1CC(N)C(O)C(C)O1` (stereo partly drawn) [DOX, Doxorubicin hydrochloride], the “incorporation efficiency of the reagent” value in series [1] is reported as 6.5 % (wt); in series [2], 17.9 % (wt). Further, the “highest incorporation efficiency of the reagent” value in series [3] was 2 % (wt).
